# In ChEMBL document CHEMBL1201862, “PubChem BioAssay data set” (2004):
#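 Test compounds were applied to cells in 96-well plates for 48 hours at 5 doses. Abbreviation: GI50, concentration required for 50% inhibition of growth.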 Active and inactive are the calls of the source. No stated cut-off is given here; in the data, active = GI50 up to about 1.1 µM and inactive = higher. Starred links: 1 amine or outer side, 2 acyl side, 3 side chain; linkers in the order of their positions; H or OH if unused. Positions of bridges follow the written chain, without caps; N, C: chain ends. Non-standard residues stand in square brackets, D forms with d. Residues, ends and D or L forms follow the SMILES beside them. ξ: configuration not given here. X11 = CCC(C)C(N[*:1])C(O)CC(=O)O[C@H](C(=O)C(C)C(=O)[*:2])C(C)C; X10 = O=C([C@@H]1CC(O)CN1[*:1])[*:2]; NMeY = CN[C@@H](Cc1ccc(O)cc1)C(=O)O; ξNMeL = CNC(CC(C)C)C(=O)O; ξT = CC(O)C(N)C(=O)O
# Tests used:
# Assay in all cases: NCI anticancer screen, dose series, 48 h
# M14 = test system: M14
# TK-10 = test system: TK-10
# SNB-19 = test system: SNB-19
# OVCAR-4 = test system: OVCAR-4
# U-251 = test system: U-251
# NCI-H460 = test system: NCI-H460
# SK-MEL-2 = test system: SK-MEL-2
# SK-MEL-5 = test system: SK-MEL-5
# EKVX = test system: EKVX
# SF-268 = test system: SF-268
# SR = test system: SR
# SF-539 = test system: SF-539
# RXF 393 = test system: RXF 393
# CCRF-CEM = test system: CCRF-CEM
# LOX IMVI = test system: LOX IMVI
# HCC 2998 = test system: HCC 2998
# UACC-257 = test system: UACC-257
# SN12C = test system: SN12C
# KM12 = test system: KM12
# HCT-116 = test system: HCT-116
SMILES,GI50 (M14),GI50 (TK-10),GI50 (SNB-19),GI50 (OVCAR-4),GI50 (U-251),GI50 (NCI-H460),GI50 (SK-MEL-2),GI50 (SK-MEL-5),GI50 (EKVX),GI50 (SF-268),GI50 (SR),GI50 (SF-539),GI50 (RXF 393),GI50 (CCRF-CEM),GI50 (LOX IMVI),GI50 (HCC 2998),GI50 (UACC-257),GI50 (SN12C),GI50 (KM12),GI50 (HCT-116)
CCCCCCNC(=O)C1=C(C)NC(C)=C(C(=O)NCCCCCC)C1,> 100 µM (inactive),> 100 µM (inactive),> 100 µM (inactive),> 100 µM (inactive),> 100 µM (inactive),> 100 µM (inactive),> 100 µM (inactive),> 100 µM (inactive),> 100 µM (inactive),> 100 µM (inactive),83 µM (inactive),> 100 µM (inactive),> 100 µM (inactive),70.3 µM (inactive),> 100 µM (inactive),> 100 µM (inactive),> 100 µM (inactive),> 100 µM (inactive),> 100 µM (inactive),> 100 µM (inactive)
CN(CCN(C)CCN(C)C(=O)Cc1ccc(Cl)c(Cl)c1)CCN1CCCC1,25.9 µM (inactive),26.1 µM (inactive),39 µM (inactive),77.6 µM (inactive),19 µM (inactive),26.9 µM (inactive),16 µM (inactive),15.2 µM (inactive),45.4 µM (inactive),41.2 µM (inactive),16.5 µM (inactive),21.8 µM (inactive),16.2 µM (inactive),11.6 µM (inactive),16.6 µM (inactive),11.7 µM (inactive),5.11 µM (inactive),39 µM (inactive),35 µM (inactive),25 µM (inactive)
COC1=C(C(c2cc(OC)c(OC)c(OC)c2)c2cc3c(cc2OC)OCO3)C(=O)OC1 (stereo not given),17.9 µM (inactive),> 44 µM (inactive),30.7 µM (inactive),30.4 µM (inactive),33.3 µM (inactive),29.2 µM (inactive),45.2 µM (inactive),22.8 µM (inactive),28.4 µM (inactive),24.6 µM (inactive),11.1 µM (inactive),15.4 µM (inactive),11.7 µM (inactive),21.4 µM (inactive),10 µM (inactive),44.1 µM (inactive),> 34.4 µM (inactive),34.8 µM (inactive),11.6 µM (inactive),7.01 µM (inactive)
CC(C)(C)c1ccc(-n2c3nc(=O)n(-c4ccccc4CO)c(=O)c-3cc3ccccc32)cc1,42.8 µM (inactive),61.5 µM (inactive),74.8 µM (inactive),49 µM (inactive),55.6 µM (inactive),38.9 µM (inactive),> 10 µM (inactive),38.9 µM (inactive),48.9 µM (inactive),40.6 µM (inactive),30.5 µM (inactive),30.5 µM (inactive),22.8 µM (inactive),38.1 µM (inactive),20.5 µM (inactive),38 µM (inactive),30.5 µM (inactive),57.7 µM (inactive),37.7 µM (inactive),38.4 µM (inactive)
CC(=O)c1cccc(NC(=O)C(=O)C(C(=O)c2ccccc2F)C2OC(=O)c3ccccc32)c1 (stereo not given),92.7 µM (inactive),> 100 µM (inactive),32.1 µM (inactive),32.5 µM (inactive),19.8 µM (inactive),30.9 µM (inactive),29.8 µM (inactive),64 µM (inactive),43.4 µM (inactive),34.3 µM (inactive),9.2 µM (inactive),> 10 µM (inactive),28.1 µM (inactive),14.8 µM (inactive),19.5 µM (inactive),24.1 µM (inactive),73.5 µM (inactive),27.1 µM (inactive),39.7 µM (inactive),33.3 µM (inactive)
CC(C)(/N=N/C(C)(C)C(=O)NCCO)C(=O)NCCO,> 100 µM (inactive),> 100 µM (inactive),> 100 µM (inactive),> 100 µM (inactive),> 100 µM (inactive),> 100 µM (inactive),> 100 µM (inactive),> 100 µM (inactive),> 100 µM (inactive),> 100 µM (inactive),> 100 µM (inactive),> 100 µM (inactive),> 100 µM (inactive),> 100 µM (inactive),> 100 µM (inactive),> 100 µM (inactive),> 100 µM (inactive),> 100 µM (inactive),> 100 µM (inactive),> 100 µM (inactive)
CN(C)C(=S)SCC(N)=O,> 100 µM (inactive),> 100 µM (inactive),> 100 µM (inactive),> 100 µM (inactive),> 100 µM (inactive),> 100 µM (inactive),> 100 µM (inactive),65.2 µM (inactive),> 100 µM (inactive),> 100 µM (inactive),> 100 µM (inactive),> 100 µM (inactive),> 100 µM (inactive),> 100 µM (inactive),> 100 µM (inactive),> 100 µM (inactive),> 100 µM (inactive),> 100 µM (inactive),> 100 µM (inactive),> 100 µM (inactive)
COc1ccc(NC(=O)C(=O)NO)c(OC)c1,16.3 µM (inactive),22.4 µM (inactive),14.9 µM (inactive),17.7 µM (inactive),16.7 µM (inactive),16 µM (inactive),16.1 µM (inactive),18.5 µM (inactive),14.9 µM (inactive),16.9 µM (inactive),0.239 µM (active),20.9 µM (inactive),15.6 µM (inactive),23 µM (inactive),14.2 µM (inactive),21.4 µM (inactive),22.2 µM (inactive),20 µM (inactive),19.8 µM (inactive),18.5 µM (inactive)
CCOC(=O)c1nc2ccccc2n(CC)c1=O,> 100 µM (inactive),> 100 µM (inactive),> 100 µM (inactive),> 100 µM (inactive),> 100 µM (inactive),81.7 µM (inactive),> 100 µM (inactive),> 100 µM (inactive),> 100 µM (inactive),> 100 µM (inactive),> 100 µM (inactive),> 100 µM (inactive),> 100 µM (inactive),> 100 µM (inactive),> 100 µM (inactive),> 100 µM (inactive),> 100 µM (inactive),> 100 µM (inactive),> 100 µM (inactive),> 100 µM (inactive)
CCC(C)C1NC(=O)C(NC(=O)C(CC(C)C)N(C)C(=O)[C@@H]2CC(O)CN2)C(C)OC(=O)[C@H](Cc2ccc(OC)cc2)N(C)C(=O)[C@@H]2CCCN2C(=O)[C@H](CC(C)C)NC(=O)C(C)C(=O)[C@H](C(C)C)OC(=O)CC1O (stereo not given in full) (H-[X10][ξNMeL][ξT][X11]LP[NMeY](Me); ester 3-C),0.00419 µM (active),0.164 µM (active),0.00819 µM (active),0.00594 µM (active),0.00175 µM (active),0.00491 µM (active),0.00399 µM (active),< 0.001 µM (active),0.01 µM (active),0.011 µM (active),0.0148 µM (active),0.00157 µM (active),0.0115 µM (active),0.00233 µM (active),0.00311 µM (active),0.00469 µM (active),0.0152 µM (active),0.00951 µM (active),< 0.001 µM (active),0.00143 µM (active)
"O=C1/C(=C/c2ccccc2)CCC/C1=C\c1ccccc1 [2,6-DIBENZYLIDENECYCLOHEXANONE]",6.44 µM (inactive),17.8 µM (inactive),14.6 µM (inactive),14.9 µM (inactive),5.82 µM (inactive),14.9 µM (inactive),16.7 µM (inactive),13.2 µM (inactive),18.3 µM (inactive),11 µM (inactive),9.71 µM (inactive),16.6 µM (inactive),17.8 µM (inactive),4.12 µM (inactive),2.21 µM (inactive),12.2 µM (inactive),17 µM (inactive),16.1 µM (inactive),2.52 µM (inactive),1.71 µM (inactive)
C[C@]12CC[C@H](O[C@@H]3O[C@H](CO[C@@H]4O[C@H](CO)[C@@H](O)[C@H](O)[C@H]4O)[C@@H](O)[C@H](O)[C@H]3O)C[C@@H]1CC[C@@H]1[C@@H]2CC[C@]2(C)[C@@H](C3=CC(=O)OC3)CC[C@]12O [UZARIN],24.8 µM (inactive),18.8 µM (inactive),38.9 µM (inactive),17.3 µM (inactive),39.7 µM (inactive),7.29 µM (inactive),36.4 µM (inactive),4.62 µM (inactive),17.7 µM (inactive),11 µM (inactive),6.25 µM (inactive),15.5 µM (inactive),12.5 µM (inactive),4.07 µM (inactive),22.1 µM (inactive),21.9 µM (inactive),31.3 µM (inactive),20.1 µM (inactive),47.8 µM (inactive),9.06 µM (inactive)
